US20070141028A1, “Cancer gene therapeutic drug” (priority 2003, published 2007)

Experiments:
Type in all cases: cell-based
ovarian cancer cells HEY = test: Influence of Fe and ALA on the proliferation inhibitory effect of adenovirus AdE3-1A1.3B (virus rate at IC50); settings: IC50 after five days
Experimental: Ovarian cancer cells HEY were cultured in 12-well plate at a rate of 10,000 cells/well and FeSO4 was added at a concentration of 50 μg/ml, 5 μg/ml, 0.5 μg/ml or 0 μg/ml on the following day and the cytolysis type adenovirus AdE3-1A1.3B was added to all wells. The proliferation inhibitory effect of the adenovirus was evaluated by IC50 after five days.
(§1) Next, the ovarian cancer cell line HEY was cultured in a 12-well plate at a rate of 10,000 cells/well and 5-aminolevulinic acid (ALA) was added at a concentration of 50 μg/ml, 5 μg/ml, 0.5 μg/ml or 0 μg/ml on the following day and the cytolysis type adenovirus AdE3-1A1.3B was added to all wells. The proliferation inhibitory effect of the adenovirus was evaluated by IC50 after five days.
as §1, with “Furthermore,” for “Next,”, “FeSO4” for “5-aminolevulinic acid (ALA)”, “day. In addition,” for “day and”, “AdE3-1A1.3B and 50 μg/ml of 5-aminolevulinic acid (ALA) were added to each well. Only the adenovirus” for “AdE3-1A1.3B”, “a control.” for “all wells.”

cancer cells [1] = test: β-gal assay of adenovirus infectivity
Description: (§2) That is, ALA and Fe can enhance antitumor effect, because they can increase the infectivity of adenovirus to cancer cells and the amount of virus production within the cells.

cancer cells [2] = test: PFU assay of adenovirus production
Description: as §2

## ferrous sulfate [FeSO4]
Ovarian cancer cells HEY; 0.5 μg/ml FeSO4 + 50 μg/ml ALA + AdE3-1A1.3B
  proliferation inhibitory effect relative to only adenovirus administration: about 200 fold
Ovarian cancer cells HEY; 5 μg/ml FeSO4 + 50 μg/ml ALA + AdE3-1A1.3B
  proliferation inhibitory effect relative to only adenovirus administration: about 700 fold
Ovarian cancer cells HEY; 5 μg/ml FeSO4 + AdE3-1A1.3B
  proliferation inhibitory effect relative to only adenovirus administration: about 8 fold
Ovarian cancer cells HEY; 50 μg/ml FeSO4 + 50 μg/ml ALA + AdE3-1A1.3B
  proliferation inhibitory effect relative to only adenovirus administration: about 1,000 fold
Ovarian cancer cells HEY; 50 μg/ml FeSO4 + AdE3-1A1.3B
  proliferation inhibitory effect relative to only adenovirus administration: about 20 fold

## NCC(=O)CCC(=O)O [ALA, 5-aminolevulinic acid]
Ovarian cancer cells HEY; 50 μg/ml ALA + AdE3-1A1.3B
  proliferation inhibitory effect relative to only adenovirus administration: about 100 fold
Cancer cells [1]
  infectivity of adenovirus: increased infectivity of adenovirus
Cancer cells [2]
  amount of adenovirus production: increased amount of adenovirus production
